Data set [1] has as its target T1, Proteasome Macropain subunit MB1 (Homo sapiens) (UniProt P28074).
T1 sequence (whole entry): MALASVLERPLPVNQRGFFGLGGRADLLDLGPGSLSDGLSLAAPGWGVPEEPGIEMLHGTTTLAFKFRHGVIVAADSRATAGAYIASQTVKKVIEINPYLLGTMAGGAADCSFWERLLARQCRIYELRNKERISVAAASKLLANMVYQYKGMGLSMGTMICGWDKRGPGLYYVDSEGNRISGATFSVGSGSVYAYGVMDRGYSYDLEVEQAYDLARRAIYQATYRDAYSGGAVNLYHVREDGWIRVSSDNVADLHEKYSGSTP
As to the kind of experiment: Inhibition of chymotrypsin-like activity of human 20S proteasome at 100 nM using Suc-Leu-Leu-Val-Tyr-AMC as substrate by fluorescence assay relative to control.

Data set [2] deals with T2, Proteasome Macropain subunit MB1 (Homo sapiens, UniProt P28074).
T2 sequence (P28074 whole entry): T1 sequence (whole entry)
As to the kind of experiment: Inhibition of chymotrypsin-like activity of human 20S proteasome using Suc-Leu-Leu-Val-Tyr-AMC as substrate by fluorescence assay.

Data set [3] has as its target T1, Proteasome Macropain subunit MB1 (Homo sapiens). The experiment in a line: Inhibition of chymotrypsin-like activity of human 20S proteasome at 1 uM using Suc-Leu-Leu-Val-Tyr-AMC as substrate by fluorescence assay relative to control.
Data set [4] in a line: Drug metabolism in human plasma administered as iv bolus dose after 30 mins. The data set is classed as ADME, organism-based. The following applies: read-out: Drug metabolism.
The next data set concerns HL-60. The experiment in a line: Antiproliferative activity against human HL60 cells after 72 hrs by SRB assay. The conditions noted are these: HL-60, 72 h. The data set is classed as functional, cell-based.
The next data set relates to RPMI-8226. As to the kind of experiment: Antiproliferative activity against human RPMI8226 cells after 72 hrs by SRB assay. The conditions noted are these: RPMI-8226, 72 h. It is filed as functional, cell-based. (In general: In SRB staining, fixed cells bind dye roughly in proportion to their protein.)
A further data set concerns MDA-MB-231. The experiment in a line: Antiproliferative activity against human MDA-MB-231 cells after 72 hrs by SRB assay. The conditions noted are these: MDA-MB-231, 72 h. The data set is classed as functional, cell-based.
A further data set concerns A2780. The experiment in a line: Antiproliferative activity against human A2780 cells after 72 hrs by SRB assay. It is filed as functional, cell-based. The following applies: A2780, 72 h.
The species entered for a further data set is Homo sapiens. The experiment in a line: Inhibition of 20S proteasome activity in human MDA-MB-231 cells assessed as accumulation of ubiquitinated proteins at 50 nM by Western blot method. It is filed as cell-based.
Data set [5] can be described thus: Metabolic stability in Sprague-Dawley rat liver microsomes assessed as compound remaining at 20 uM preincubated for 5 mins followed by NADPH addition measured after 20 mins by HPLC analysis. The data set is classed as ADME, microsome. The conditions noted are these: read-out: Stability. Background: Liver microsomes are a subcellular fraction often used to study metabolism.

Another data set relates to A549. The experiment in a line: Antiproliferative activity against human A549 cells after 72 hrs by SRB assay. The following applies: A549, 72 h. It is filed as functional, cell-based.
Data set [6] has as its target T2, Proteasome Macropain subunit MB1. The experiment in a line: Inhibition of chymotrypsin-like activity of human LCL-derived 20S proteasome using Suc-LLVY-AMC as substrate preincubated with enzyme followed by substrate addition measured after 30 mins by fluorescence assay.

The source made the active and inactive calls. The calls are words filed in the database; no cut-off is given here.

Take `CC(C)C[C@H](NC(=O)[C@H](CC(C)C)NC1=CC(=O)c2ccccc2C1=O)B(O)O`: the inhibition in data set [1] is 79.8%; in data set [3] it was over 50%. The IC50 in data set [2] was 44.3 nM.

`CC(C)C[C@H](NC(=O)[C@H](Cc1ccccc1)NC1=C(Cl)C(=O)c2ccccc2C1=O)B(O)O`: the values for the inhibition in [1] and in data set [3] were 86.7% and over 50%, respectively. This molecule registered an IC50 in data set [2] of 24.6 nM.

Take `CC1=C(NCC(=O)N[C@@H](CC(C)C)B(O)O)C(=O)c2ccccc2C1=O`: the inhibition is 65.9% in data set [1] and over 50% in data set [3].

`CC1=C(N[C@@H](Cc2ccccc2)C(=O)N[C@@H](CC(C)C)B(O)O)C(=O)c2ccccc2C1=O`: the inhibition in data set [1] is 84.7%; in data set [3] it was over 50%. Half-maximal inhibition in data set [2] (IC50) was put at 25.9 nM.

In the case of `CC(C)C[C@H](NC(=O)CNC(=O)c1cc(Cl)ccc1Cl)B(O)O` [IXAZOMIB], in data set [4], the metabolised at 0.5 h was determined as 90%.

Turning to `CC(C)C[C@H](NC(=O)[C@@H](NC1=CC(=O)c2ccccc2C1=O)C(C)C)B(O)O`, the inhibition in data set [1] is 69.2%; in [3], over 50%.

For `CC1=C(N[C@@H](CC(C)C)C(=O)N[C@@H](CC(C)C)B(O)O)C(=O)c2ccccc2C1=O`, the figures for the inhibition in data set [1] and in data set [3] were 31.4% and over 50%, respectively.

As to `CC1=C(N[C@@H](C)C(=O)N[C@@H](CC(C)C)B(O)O)C(=O)c2ccccc2C1=O`, the inhibition was 52.3% in data set [1] and over 50% in data set [3].

On to `CC(C)C[C@H](NC(=O)[C@H](Cc1ccccc1)NC1=CC(=O)c2ccccc2C1=O)B(O)O`, for which the values for the inhibition in data set [1] and in data set [3] were 90.3% and over 50%, respectively. Moreover, the IC50 was 11.4 nM in data set [2]; 1110 nM in the data set with HL-60; 1090 nM in the data set with RPMI-8226; 38.3 nM with MDA-MB-231; 470 nM in the data set on A2780; 679 nM with A549. In addition, the inhibition result in the data set listed under Homo sapiens was “Active”. Further, the remaining at 20 min, 20 µM in data set [5] amounted to 60%.

As to `CC(C)C[C@H](NC(=O)[C@H](C)NC1=C(Cl)C(=O)c2ccccc2C1=O)B(O)O`, the inhibition in data set [1] was 64.8%; in data set [3] it was over 50%.

Consider `C[C@@H](CO)NC(=O)c1ccccc1O`, for which the IC50 in data set [6] came to 24800 nM. In other words, the double-digit micromolar range.

As for `CC1=C(N[C@H](C(=O)N[C@@H](CC(C)C)B(O)O)C(C)C)C(=O)c2ccccc2C1=O`, the inhibition is 42.3% in data set [1] and over 50% in data set [3].

On to `CC(C)C[C@H](NC(=O)[C@H](C)NC1=CC(=O)c2ccccc2C1=O)B(O)O`, for which the inhibition in data set [1] was 67.5%; in data set [3], over 50%.

Regarding `CC(C)C[C@H](NC(=O)CNC1=C(Cl)C(=O)c2ccccc2C1=O)B(O)O`, the inhibition in [1] is 67.7%; in [3] it was over 50%.

On to `CC(C)C[C@H](NC(=O)CNC1=CC(=O)c2ccccc2C1=O)B(O)O`, for which the results for the inhibition in [1] and in data set [3] were 84.9% and over 50%, respectively. Besides, the IC50 was 23.2 nM in data set [2]; 3590 nM in the data set on HL-60; 3460 nM with RPMI-8226; 1250 nM with MDA-MB-231; 3700 nM in the data set with A2780; 2890 nM in the data set with A549. The inhibition result in the data set filed under Homo sapiens was “Active”.

For the molecule `O=CN(O)CCC[C@@H](NC(=O)[C@H](CO)NC(=O)[C@@H]1COC(c2ccccc2O)=N1)C(=O)NCCC(=O)N[C@@H]1CCCN(O)C1=O`, the IC50 in [6] is 39400 nM.

Take `CC(C)C[C@H](NC(=O)[C@H](CC(C)C)NC1=C(Cl)C(=O)c2ccccc2C1=O)B(O)O`: the inhibition in data set [1] was 43.5%; in [3], over 50%.

Regarding `CC(C)C[C@H](NC(=O)[C@@H](NC1=C(Cl)C(=O)c2ccccc2C1=O)C(C)C)B(O)O`, the figures for the inhibition in [1] and in [3] were 47.4% and over 50%, respectively.

Take `CC(C)C[C@H](NC(=O)[C@H](Cc1ccccc1)NC(=O)c1cnccn1)B(O)O` [BORTEZOMIB]: the IC50 was found to be 3.2 nM in the data set with HL-60; 6.7 nM in the data set on RPMI-8226; 6.5 nM in the data set on MDA-MB-231; 28.9 nM in the data set on A2780; 2.5 nM in the data set on A549. In addition, the remaining at 20 min, 20 µM in data set [5] came to 44%.

What is called inhibition is the share of the control response that was lost under treatment. The term IC50 denotes the concentration at which inhibition is half-maximal. Read a high IC50 as weaker potency.

The values are drawn from ChEMBL document CHEMBL4004842, “Design, synthesis and biological evaluation of novel non-peptide boronic acid derivatives as proteasome inhibitors” (Eur J Med Chem, 2017).
